Measurements published in ChEMBL document CHEMBL2311476, “Inhibitory effects of metachromins L-Q and its related analogs against receptor tyrosine kinases EGFR and HER2” (Bioorg Med Chem Lett, 2013).
Converted amounts (≈) assume the structure as drawn.

Columns and labels:
[1] = biological target: Epidermal growth factor receptor (Homo sapiens, UniProt P00533); assay: Inhibition of EGFR (unknown origin) by Z-LYTE assay
[2] = biological target: Receptor tyrosine-protein kinase erbB-2 (Homo sapiens, UniProt P04626); assay: Inhibition of HER2 (unknown origin) by Z-LYTE assay
L1210 = assay: Cytotoxicity against mouse L1210 cells after 48 hrs; assay type: cell-based; settings: L1210, 48 h
KB = assay: Cytotoxicity against human KB cells after 48 hrs; assay type: cell-based

Sequence of Epidermal growth factor receptor (P00533 whole entry): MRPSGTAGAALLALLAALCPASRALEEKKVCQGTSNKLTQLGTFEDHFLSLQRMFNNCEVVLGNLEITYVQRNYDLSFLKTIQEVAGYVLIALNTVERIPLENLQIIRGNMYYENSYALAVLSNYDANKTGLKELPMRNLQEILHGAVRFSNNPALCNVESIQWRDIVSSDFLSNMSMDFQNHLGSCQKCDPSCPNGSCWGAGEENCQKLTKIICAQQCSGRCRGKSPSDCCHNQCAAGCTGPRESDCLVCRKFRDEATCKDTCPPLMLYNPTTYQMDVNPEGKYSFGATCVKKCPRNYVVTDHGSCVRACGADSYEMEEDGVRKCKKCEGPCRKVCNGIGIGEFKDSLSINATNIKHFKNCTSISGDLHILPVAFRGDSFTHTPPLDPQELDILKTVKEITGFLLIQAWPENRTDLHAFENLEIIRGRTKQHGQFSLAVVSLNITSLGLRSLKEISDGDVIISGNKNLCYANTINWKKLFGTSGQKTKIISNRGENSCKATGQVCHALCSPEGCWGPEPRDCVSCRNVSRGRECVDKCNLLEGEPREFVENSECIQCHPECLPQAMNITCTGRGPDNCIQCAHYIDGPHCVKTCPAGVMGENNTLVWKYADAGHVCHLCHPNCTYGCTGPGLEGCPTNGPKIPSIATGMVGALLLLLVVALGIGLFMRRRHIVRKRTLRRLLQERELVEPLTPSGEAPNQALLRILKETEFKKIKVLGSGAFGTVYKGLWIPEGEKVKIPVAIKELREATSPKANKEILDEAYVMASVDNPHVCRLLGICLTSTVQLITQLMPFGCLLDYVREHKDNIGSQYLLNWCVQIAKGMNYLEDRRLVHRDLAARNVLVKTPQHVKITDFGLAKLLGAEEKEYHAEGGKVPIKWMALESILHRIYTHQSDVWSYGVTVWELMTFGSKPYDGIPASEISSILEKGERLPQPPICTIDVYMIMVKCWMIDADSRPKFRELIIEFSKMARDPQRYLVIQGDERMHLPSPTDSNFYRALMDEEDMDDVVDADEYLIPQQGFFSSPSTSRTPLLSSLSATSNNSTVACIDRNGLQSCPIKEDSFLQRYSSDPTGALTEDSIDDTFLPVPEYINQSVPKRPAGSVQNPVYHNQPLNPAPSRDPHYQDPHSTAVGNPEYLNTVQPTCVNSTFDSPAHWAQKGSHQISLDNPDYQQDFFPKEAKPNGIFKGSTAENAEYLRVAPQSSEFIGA
Sequence of Receptor tyrosine-protein kinase erbB-2 (P04626 whole entry): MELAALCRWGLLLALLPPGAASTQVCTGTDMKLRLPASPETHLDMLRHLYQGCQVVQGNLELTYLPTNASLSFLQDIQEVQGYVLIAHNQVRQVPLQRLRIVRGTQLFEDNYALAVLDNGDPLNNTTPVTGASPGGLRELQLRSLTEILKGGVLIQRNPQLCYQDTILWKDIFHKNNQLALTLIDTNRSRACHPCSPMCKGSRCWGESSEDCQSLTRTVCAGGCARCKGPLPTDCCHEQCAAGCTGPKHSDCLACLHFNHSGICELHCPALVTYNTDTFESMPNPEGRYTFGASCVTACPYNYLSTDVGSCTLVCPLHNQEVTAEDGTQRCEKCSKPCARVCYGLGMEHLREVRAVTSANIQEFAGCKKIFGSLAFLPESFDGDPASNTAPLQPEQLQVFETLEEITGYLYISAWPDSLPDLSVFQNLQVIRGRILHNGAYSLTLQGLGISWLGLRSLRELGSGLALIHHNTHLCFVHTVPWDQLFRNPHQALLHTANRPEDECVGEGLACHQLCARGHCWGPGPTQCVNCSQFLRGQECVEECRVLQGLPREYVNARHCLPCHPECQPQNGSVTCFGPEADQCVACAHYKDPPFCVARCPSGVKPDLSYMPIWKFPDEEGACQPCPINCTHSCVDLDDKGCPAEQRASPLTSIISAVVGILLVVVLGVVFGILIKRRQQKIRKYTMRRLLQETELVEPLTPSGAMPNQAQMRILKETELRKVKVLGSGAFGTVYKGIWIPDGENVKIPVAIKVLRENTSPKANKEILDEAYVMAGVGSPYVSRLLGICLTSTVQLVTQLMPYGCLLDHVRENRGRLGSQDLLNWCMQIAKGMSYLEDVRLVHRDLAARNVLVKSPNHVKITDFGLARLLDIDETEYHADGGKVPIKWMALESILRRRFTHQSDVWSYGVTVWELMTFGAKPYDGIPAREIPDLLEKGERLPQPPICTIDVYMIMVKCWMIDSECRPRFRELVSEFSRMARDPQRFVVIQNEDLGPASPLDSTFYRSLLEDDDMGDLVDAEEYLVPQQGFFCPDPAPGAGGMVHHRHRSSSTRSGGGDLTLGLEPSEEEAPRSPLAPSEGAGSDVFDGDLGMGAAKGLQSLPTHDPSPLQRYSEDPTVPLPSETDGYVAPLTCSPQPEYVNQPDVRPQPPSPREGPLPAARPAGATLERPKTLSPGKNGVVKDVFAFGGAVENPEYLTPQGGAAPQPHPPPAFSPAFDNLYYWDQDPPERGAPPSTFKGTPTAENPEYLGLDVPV

Structure (SMILES)	IC50 [1] [µM]	IC50 [2] [µM]	IC50 (L1210) [µg/mL]	IC50 (KB) [µg/mL]
C=C1[C@H](C)CCC[C@]1(C)CC/C(C)=C/CC1=C(O)C(=O)C=C(N[C@H](CO)C(=O)O)C1=O	> 463	> 463	2.6 (≈ 6.03 µM)	> 10
CC1=CCC[C@](C)(CC/C(C)=C/CC2=C(O)C(=O)C=C(N[C@H](CO)C(=O)O)C2=O)[C@@H]1C	> 463	> 463	> 10	> 10
C=C1[C@H](C)CCC[C@]1(C)CC/C(C)=C/CC1=C(O)C(=O)C=C(OC)C1=O [METACHROMIN A]	> 558	> 558	2.4 (≈ 6.69 µM)	> 10
COC1=CC(=O)C(O)=C(C/C=C(\C)CC[C@@]2(C)CCC=C(C)[C@H]2C)C1=O [METACHROMIN C]	> 558	> 558		> 10
CC1=CCC[C@](C)(CC/C(C)=C/CC2=C(O)C(=O)C=C(NCC(=O)O)C2=O)[C@@H]1C [METACHROMIN M]	> 498	197	3.5 (≈ 8.72 µM)	5.4 (≈ 13.4 µM)
C=C1[C@H](C)CCC[C@]1(C)CC/C(C)=C/CC1=C(O)C(=O)C=C(N[C@H](C(=O)O)[C@@H](C)O)C1=O [METACHROMIN N]	> 449	426	> 10	> 10
CC1=CCC[C@](C)(CC/C(C)=C/CC2=C(O)C(=O)C=C(N[C@H](C(=O)O)[C@@H](C)O)C2=O)[C@@H]1C [METACHROMIN O]	> 449	60.6	> 10	> 10
C=C1[C@H](C)CCC[C@]1(C)CC/C(C)=C/CC1=C(O)C(=O)C=C(N[C@@H](CO)C(=O)O)C1=O [METACHROMIN P]	> 463	41.7	> 10	> 10
CC1=CCC[C@](C)(CC/C(C)=C/CC2=C(O)C(=O)C=C(N[C@@H](CO)C(=O)O)C2=O)[C@@H]1C [METACHROMIN Q]	> 463	51	> 10	> 10

The next lines start with results.

IC50 [1] [µM]	IC50 [2] [µM]	Structure (SMILES)	IC50 (L1210) [µg/mL]	IC50 (KB) [µg/mL]
> 449	> 449	C=C1[C@H](C)CCC[C@]1(C)CC/C(C)=C/CC1=C(O)C(=O)C=C(N[C@@H](C(=O)O)[C@H](C)O)C1=O	4.6 (≈ 10.3 µM)	> 10
> 449	215	CC1=CCC[C@](C)(CC/C(C)=C/CC2=C(O)C(=O)C=C(N[C@@H](C(=O)O)[C@H](C)O)C2=O)[C@@H]1C	> 10	> 10
> 449	> 449	C=C1[C@H](C)CCC[C@]1(C)CC/C(C)=C/CC1=C(O)C(=O)C=C(N[C@H](C(=O)O)[C@H](C)O)C1=O	> 10	> 10
> 449	89.8	CC1=CCC[C@](C)(CC/C(C)=C/CC2=C(O)C(=O)C=C(N[C@H](C(=O)O)[C@H](C)O)C2=O)[C@@H]1C	> 10	> 10
211	180	C=C1[C@H](C)CCC[C@]1(C)CC/C(C)=C/CC1=C(O)C(=O)C=C(N[C@@H](C(=O)O)[C@@H](C)O)C1=O	> 10	> 10
269	> 449	CC1=CCC[C@](C)(CC/C(C)=C/CC2=C(O)C(=O)C=C(N[C@@H](C(=O)O)[C@@H](C)O)C2=O)[C@@H]1C	> 10	> 10
435	104	C=C1[C@H](C)CCC[C@]1(C)CC/C(C)=C/CC1=C(O)C(=O)C=C(N[C@H](C(=O)O)C(C)C)C1=O	4.4 (≈ 9.92 µM)	> 10
293	78.9	CC1=CCC[C@](C)(CC/C(C)=C/CC2=C(O)C(=O)C=C(N[C@H](C(=O)O)C(C)C)C2=O)[C@@H]1C	3.4 (≈ 7.66 µM)	> 10
293	142	C=C1[C@H](C)CCC[C@]1(C)CC/C(C)=C/CC1=C(O)C(=O)C=C(N[C@@H](C(=O)O)C(C)C)C1=O	3.4 (≈ 7.66 µM)	6.2 (≈ 14 µM)
334	83.4	CC1=CCC[C@](C)(CC/C(C)=C/CC2=C(O)C(=O)C=C(N[C@@H](C(=O)O)C(C)C)C2=O)[C@@H]1C	3 (≈ 6.76 µM)	> 10
491	311	C=C1[C@H](C)CCC[C@]1(C)CC/C(C)=C/CC1=C(O)C(=O)C=C(NCC(=O)O)C1=O [METACHROMIN L]	4 (≈ 9.96 µM)	4 (≈ 9.96 µM)
290	69.5	CC1=CCC[C@H]2[C@](C)(CC3=C(O)C(=O)C=C(N[C@@H](CO)C(=O)O)C3=O)[C@@H](C)CC[C@]12C [NAKIJIQUINONE C]	3.8 (≈ 8.81 µM)	7.6 (≈ 17.6 µM)
